Experimental data published in US9914731B2, “Pyrazolo[1,5-a]pyridine derivatives and methods of their use” (Ignyta, Inc., priority 2013, dated 2018).

Columns and labels:
[1] = molecular target: recombinant human baculovirus-expressed cMET (Homo sapiens (Human), UniProt P08581); test: c-MET kinase assay (HTRF KinEASE); assay type: biochemical; conditions: average of two or more determinations; read-out: c-MET IC50
[2] = molecular target: recombinant human baculovirus-expressed AXL (Homo sapiens (Human), UniProt P30530); test: AXL kinase assay (HTRF KinEASE); assay type: biochemical; conditions: average of two or more determinations

Row | Compound | IC50 [1] [nM] | IC50 [2] [nM]
1 | 1-Ethyl-3-(4-fluoro-phenyl)-2,4-dioxo-1,2,3,4-tetrahydro-pyrimidine-5-carboxylic acid {3-fluoro-4-[6-(1H-pyrazol-3-yl)-pyrazolo[1,5-a]pyridin-4-yloxy]-phenyl}-amide [Example 40] | < 10 | < 10
2 | O=C(Nc1ccc(Oc2cc(-c3cccnc3)cn3nccc23)c(F)c1)c1cccn(-c2ccc(F)cc2)c1=O [Example 25, 1-(4-Fluoro-phenyl)-2-oxo-1,2-dihydro-pyridine-3-carboxylic acid 3-fluoro-4-(6-pyridin-3-yl-pyrazolo[1,5-a]pyridin-4-yloxy)-phenyl-amide] | < 10 | < 10
3 | O=C(Nc1ccc(Oc2cc(-c3ccc(N4CCOCC4)nc3)cn3nccc23)c(F)c1)c1cccn(-c2ccc(F)cc2)c1=O [Example 26, 1-(4-Fluoro-phenyl)-2-oxo-1,2-dihydro-pyridine-3-carboxylic acid {3-fluoro-4-[6-(6-morpholin-4-yl-pyridin-3-yl)-pyrazolo[1,5-a]pyridin-4-yloxy]-phenyl}-amide] | < 10 | < 10
4 | O=C(Nc1ccc(Oc2cc(-c3ccncc3)cn3nccc23)c(F)c1)c1cccn(-c2ccc(F)cc2)c1=O [Example 27, 1-(4-Fluoro-phenyl)-2-oxo-1,2-dihydro-pyridine-3-carboxylic acid [3-fluoro-4-(6-pyridin-4-yl-pyrazolo[1,5-a]pyridin-4-yloxy)-phenyl]-amide] | < 10 | < 10
5 | Cn1cc(-c2cc(Oc3ccc(NC(=O)c4cccn(-c5ccc(F)cc5)c4=O)cc3F)c3ccnn3c2)cn1 [Example 29, 1-(4-Fluoro-phenyl)-2-oxo-1,2-dihydro-pyridine-3-carboxylic acid {3-fluoro-4-[6-(1-methyl-1H-pyrazol-4-yl)-pyrazolo[1,5-a]pyridin-4-yloxy]-phenyl}-amide] | < 10 | < 10
6 | Cn1cc(-c2cc(Oc3ccc(NC(=O)c4c[nH]c(=O)n(-c5ccc(F)cc5)c4=O)cc3F)c3ccnn3c2)cn1 [Example 30, 3-(4-Fluoro-phenyl)-2,4-dioxo-1,2,3,4-tetrahydro-pyrimidine-5-carboxylic acid {3-fluoro-4-[6-(1-methyl-1H-pyrazol-4-yl)-pyrazolo[1,5-a]pyridin-4-yloxy]-phenyl}-amide] | < 10 | < 10

Results, then the compound that gave them:

Row | IC50 [1] [nM] | IC50 [2] [nM] | Compound
7 | 10 to 100 | – | CC(C)n1cc(C(=O)Nc2ccc(Oc3cc(NC(=O)N4CCN(C)CC4)cn4nccc34)c(F)c2)c(=O)n(-c2ccc(F)cc2)c1=O [Example 150, 3-(4-Fluoro-phenyl)-1-isopropyl-2,4-dioxo-1,2,3,4-tetrahydro-pyrimidine-5-carboxylic acid(3-fluoro-4-{6-[(4-methyl-piperazine-1-carbonyl)-amino]-pyrazolo[1,5-a]pyridin-4-yloxy}-phenyl)-amide]
8 | 1000 to 10000 | – | Cn1cnc(-c2cc(Oc3ccc(Nc4ncccn4)cc3F)c3ccnn3c2)c1 [Example 152, {3-Fluoro-4-[6-(1-methyl-1H-imidazol-4-yl)-pyrazolo[1,5-a]pyridin-4-yloxy]-phenyl}-pyrimidin-2-yl-amine]
9 | 1000 to 10000 | – | Cn1cnc(-c2cc(Oc3ccc(NS(=O)(=O)c4ccc(F)cc4)cc3F)c3ccnn3c2)c1 [Example 153, 4-Fluoro-N-{3-fluoro-4-[6-(1-methyl-1H-imidazol-4-yl)-pyrazolo[1,5-a]pyridin-4-yloxy]-phenyl}-benzenesulfonamide]
10 | 10 to 100 | – | Cc1ccc(C(=O)Nc2ccc(Oc3cc(Br)cn4nccc34)c(F)c2)c(=O)n1-c1ccc(F)cc1 [Example 157, 1-(4-Fluoro-phenyl)-6-methyl-2-oxo-1,2-dihydro-pyridine-3-carboxylic acid [4-(6-bromo-pyrazolo[1,5-a]pyridin-4-yloxy)-3-fluoro-phenyl]-amide]
